# Where two headings read alike, the source gives them in different places. Marks after values point to notes of the source that are not given here.
# Columns and labels:
# [1] = target: T1, 5-HT2B receptor (Homo sapiens, UniProt P41595); settings: cited from earlier work
# Target sequence in this assay (P41595 whole entry): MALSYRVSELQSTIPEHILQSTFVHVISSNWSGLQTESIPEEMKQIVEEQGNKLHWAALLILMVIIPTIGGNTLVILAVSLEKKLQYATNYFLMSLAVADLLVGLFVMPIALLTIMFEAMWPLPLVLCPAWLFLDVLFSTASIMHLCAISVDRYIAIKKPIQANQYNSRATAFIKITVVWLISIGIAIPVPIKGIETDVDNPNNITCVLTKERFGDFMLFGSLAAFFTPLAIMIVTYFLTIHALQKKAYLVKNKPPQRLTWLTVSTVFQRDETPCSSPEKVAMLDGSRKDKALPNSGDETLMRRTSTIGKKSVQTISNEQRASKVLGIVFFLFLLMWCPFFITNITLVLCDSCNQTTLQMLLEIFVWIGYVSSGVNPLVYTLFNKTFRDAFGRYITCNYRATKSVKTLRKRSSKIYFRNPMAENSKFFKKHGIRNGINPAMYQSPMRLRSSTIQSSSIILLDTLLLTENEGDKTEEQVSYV
# [2] = target: 5-HT receptor in human colon longitudinal muscle (Homo sapiens, UniProt P41595); experiment: 5-HT-induced potentiation of electrically stimulated contractions of human colon longitudinal muscle strips; type: cell-based
# [3] = target: T2, human 5-HT2C receptor (Homo sapiens, UniProt P28335); settings: cited from earlier work
# T2 sequence (P28335 33-458): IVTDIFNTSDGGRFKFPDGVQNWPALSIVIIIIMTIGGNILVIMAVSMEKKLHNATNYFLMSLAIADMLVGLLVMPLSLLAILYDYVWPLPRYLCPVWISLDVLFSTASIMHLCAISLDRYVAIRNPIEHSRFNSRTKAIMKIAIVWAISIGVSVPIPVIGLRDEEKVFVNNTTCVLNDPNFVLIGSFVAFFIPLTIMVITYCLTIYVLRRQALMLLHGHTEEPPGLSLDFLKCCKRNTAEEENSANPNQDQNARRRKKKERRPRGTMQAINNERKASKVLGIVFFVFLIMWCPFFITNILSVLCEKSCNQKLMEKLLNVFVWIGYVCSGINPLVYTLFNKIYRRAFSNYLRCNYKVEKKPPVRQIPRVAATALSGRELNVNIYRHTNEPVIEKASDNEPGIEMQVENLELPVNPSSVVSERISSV
# [4] = target: T3, human 5-HT4 receptor (Homo sapiens, UniProt Q13639); settings: cited from earlier work
# [5] = target: T1, 5-HT2B receptor; settings: cited from earlier work; remark: listed apart in the source
# Target sequence in this assay (P41595 whole entry): as the sequence (P41595 whole entry) above
# [6] = target: T4, human 5-HT2A receptor (Homo sapiens, UniProt P28223); settings: cited from earlier work
# [7] = target: T3, human 5-HT4 receptor; settings: marked #; cited from earlier work
# [8] = target: T2, human 5-HT2C receptor; settings: cited from earlier work; remark: listed apart in the source
# [9] = target: T1, 5-HT2B receptor; settings: cited from earlier work; remark: listed apart in the source
# Target sequence in this assay (P41595 whole entry, looked up): as the sequence (P41595 whole entry) above
# [10] = test system: 5-HT receptor in human colon longitudinal muscle; experiment: 5-HT-induced potentiation of electrically stimulated contractions of human colon longitudinal muscle strips; type: cell-based
# [11] = target: T4, human 5-HT2A receptor; settings: cited from earlier work; remark: listed apart in the source
# Chain of 5-HT receptor in human colon longitudinal muscle (Homo sapiens, UniProt P41595) (P41595 whole entry): as the sequence (P41595 whole entry) above
# T4 sequence (P28223 whole entry): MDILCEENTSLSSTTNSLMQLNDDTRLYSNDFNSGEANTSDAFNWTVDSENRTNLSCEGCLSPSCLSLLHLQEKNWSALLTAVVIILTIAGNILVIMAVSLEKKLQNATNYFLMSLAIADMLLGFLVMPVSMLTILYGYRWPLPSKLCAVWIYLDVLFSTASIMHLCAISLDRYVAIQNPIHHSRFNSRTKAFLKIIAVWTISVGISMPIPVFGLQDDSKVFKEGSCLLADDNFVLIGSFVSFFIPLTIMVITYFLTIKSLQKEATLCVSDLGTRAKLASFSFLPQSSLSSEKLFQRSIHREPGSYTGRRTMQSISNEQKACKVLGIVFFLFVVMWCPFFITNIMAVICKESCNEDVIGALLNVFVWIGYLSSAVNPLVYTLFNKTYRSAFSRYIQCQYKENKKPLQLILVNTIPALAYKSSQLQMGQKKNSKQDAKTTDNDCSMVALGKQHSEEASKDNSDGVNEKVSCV
# T3 sequence (Q13639 whole entry): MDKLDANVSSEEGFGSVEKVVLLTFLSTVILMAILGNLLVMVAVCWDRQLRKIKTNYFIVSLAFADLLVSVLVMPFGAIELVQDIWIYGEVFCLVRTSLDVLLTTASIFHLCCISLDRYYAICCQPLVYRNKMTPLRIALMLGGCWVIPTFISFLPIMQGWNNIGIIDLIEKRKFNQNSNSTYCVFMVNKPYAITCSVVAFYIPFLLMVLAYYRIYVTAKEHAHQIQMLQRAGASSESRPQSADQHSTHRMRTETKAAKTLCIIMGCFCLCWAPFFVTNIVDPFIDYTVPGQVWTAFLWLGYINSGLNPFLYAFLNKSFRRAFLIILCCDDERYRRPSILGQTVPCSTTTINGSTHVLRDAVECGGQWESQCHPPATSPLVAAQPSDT
compound,measurement,setting,value
"CC(C)c1cc(-c2ccc(F)c3ccccc23)nc(N)n1 [RS 127445, 2-amino-4-(4-fluoronaphth-1-yl)-6-isopropylpyrimidine]",affinity from binding data (#) at human 5-HT2B receptor,[1]; marked #,9.5^#
same,Kb,[2],0.398 nM
same,pKB or pA2 for antagonists (*) at human 5-HT2C receptor,[3]; marked *,6.4*
CC(N)Cc1c[nH]c2ccc(O)cc12 (stereo not drawn) [Alpha-Me5-HT],pEC50 for agonists at human 5-HT4 receptor,[4],6.2
same,pEC50 for agonists at human 5-HT2B receptor,[5],8.4
same,pEC50 for agonists at the 5-HT receptor in colon,"[2]; human colon longitudinal muscle, mean ± s.e.mean, at least 3 donors",8.5 ± 0.1
CC[C@@H](CO)NC(=O)[C@@H]1C=C2c3cccc4c3c(cn4C)C[C@H]2N(C)C1 [Methysergide],pKB or pA2 for antagonists (*) at human 5-HT4 receptor,[4]; marked *,<5.0*
same,pKB or pA2 for antagonists (*) at human 5-HT2C receptor,[3],8.9*
"Cn1ccc2cc3c(cc21)CCN3C(=O)Nc1cccnc1 [SB 206553, 5-methyl-1-(3-pyridylcarbamoyl)-1,2,3,5-tetrahydropyrrolo [2,3-f]indole]",pKB or pA2 for antagonists (*) at human 5-HT2B receptor,[5],9.0*
same,Kb,[2],3.16 nM
same,antagonist potency against 5-HT response in human colon,[2],8.5
same,affinity from binding data (#) at human 5-HT2A receptor,[6]; marked #,6.0^#
Cc1cc2c(cc1Cl)N(C(=O)Nc1ccc(Oc3cccnc3C)nc1)CC2 [SB 242084],affinity from binding data (#) at human 5-HT2B receptor,[1],7.0^#
same,affinity from binding data (#) at human 5-HT4 receptor,[7],<5.0^#
same,affinity from binding data (#) at human 5-HT2C receptor,[8],<6.0^#
same,pKB estimate for antagonists at the 5-HT receptor in colon,"[2]; human colon longitudinal muscle, at least 3 concentrations (methiothepin a single concentration), at least 3 donors",6.3 ± 0.2
same,affinity from binding data (#) at human 5-HT2A receptor,[6],6.8^#
COc1ccc2[nH]cc(CCN)c2c1 [5-MeOT],pEC50 for agonists at human 5-HT4 receptor,[4],6.2
same,pEC50 for agonists at human 5-HT2B receptor,[5],7.6
same,pEC50 for agonists at the 5-HT receptor in colon,[2],6.8 ± 0.2
"Cl.Cn1ccc2cc(NC(=O)Nc3cccnc3)ccc21 [SB-200646, N-(1-methyl-5-indolyl)-N′-(3-pyridyl)urea hydrochloride]",selectivity between 5-HT2B and 5-HT2C receptors,[9],Non-selective
CSc1ccc2c(c1)C(N1CCN(C)CC1)Cc1ccccc1S2 (stereo not shown) [Methiothepin],pKB or pA2 for antagonists (*) at human 5-HT4 receptor,[4],<6.0*
CN1[C@@H]2CC[C@H]1C[C@@H](OC(=O)C(CO)c1ccccc1)C2 (stereo partly shown) [atropine],effect on contractile responses of colon smooth muscle to electrical stimulation,[10],inhibited
"Cc1cc2c(cc1Cl)N(C(=O)Nc1cccc3ncccc13)CC2 [SB-215505, 6-chloro-5-methyl-N-(5-quinolyl)-2,3-dihydro-1H-indole-1-carboxamide]",potency as 5-HT2B receptor antagonist,[9],9.9
same,selectivity for 5-HT2B over 5-HT2C and 5-HT2A receptors,[9],100 fold
NC1=N[C@H](O)[C@H]2[C@H]3O[C@]4(O)O[C@@H]([C@@H](O)[C@@]2(N1)[C@@H]4O)[C@]3(O)CO [tetrodotoxin],effect on contractile responses of colon smooth muscle to electrical stimulation,[10],inhibited
"N-(1-methyl-1H-indol-5-yl)N′-(-bezyl)-2,3,4,9-tetrahydro-1H-beta-carboline [LY-23728]",selectivity for 5-HT2B over 5-HT2C and 5-HT2A receptors,[9],100 fold
COC(=O)[C@@H]1[C@H]2C[C@H]3c4[nH]c5ccccc5c4CCN3C[C@@H]2CC[C@@H]1O [Yohimbine],affinity at human 5-HT2C receptor,[3],<5.0
"Cc1cc(NC(=O)Nc2ccc3c(ccn3C)c2)sn1 [SB 204741, N-(1-methyl-5-indolyl)-N′-(3-methyl-5-isothiazolyl) urea]",affinity at human 5-HT4 receptor,[4]; neither * nor # printed,<5.0
same,pKB or pA2 for antagonists (*) at human 5-HT2B receptor,[5]; marked *,7.0*
same,pKB or pA2 for antagonists (*) at human 5-HT2A receptor,[11],<5.0*
same,Kb,[2],158 nM
same,antagonist potency against 5-HT response in human colon,[2],6.8
O=C(c1ccc(F)cc1)C1CCN(CCn2c(=O)[nH]c3ccccc3c2=O)CC1 [Ketanserin],pKB or pA2 for antagonists (*) at human 5-HT4 receptor,[4]; marked *,4.7*

# Source: patent US6444477B1, “Assay method for detecting 5-HT2B antagonists” (Pharmagene Laboratories Limited, priority 2000, dated 2002)
